1 compound from patent publication EP4520824A1, “DEO[…] GENERATES FL[…] USES THEREOF” (Ústav organické chemie a biochemie Akademie ved Ceske …, priority 2023, dated 2025) can be followed below.

This assay relates to chromogenic deoxyribozyme, optimized variant (Chro 4, SEQ ID NO: 39). Briefly: Self-phosphorylation kinetics of chromogenic deoxyribozyme with 4-NPP (ligation assay). The note with it: self-phosphorylation with 4-NPP as substrate; 200 mM KCl, 1 mM ZnCl2, 50 mM HEPES pH 7.4. It is filed as biochemical.

For the compound `O=[N+]([O-])c1ccc(OP(=O)(O)O)cc1` [4-NPP, 4-nitrophenyl phosphate], the catalytic efficiency is given as ~10^3 M^-1 min^-1.
